The results in this text go back to PubChem BioAssay (NCI).

Several values for one entry are separate records, joined by “and”; a condition that tells them apart may be missing. Identical values can stand only once.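 Results reflect a 48-hour exposure of cells in 96-well plates to compound at five concentrations. GI50: concentration for 50% inhibition of growth. TGI marks complete inhibition of growth.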

This test relates to MDA-MB-468 breast. Put plainly: NCI tumour cell line growth inhibition, 48 h.
Turning to `C[C@]12CC[C@@H]3c4ccc(O)cc4CC[C@H]3[C@@H]1CC[C@@H]2NS(=O)(=O)c1cccc(F)c1`, the GI50 was 2420 nM and the TGI was 9250 nM.
The corresponding values for `Cc1cc[c-]cc1.Fc1c[c-]c(-c2ccccn2)c(F)c1.[Pt+2].c1ccc(P(C[PH+](c2ccccc2)c2ccccc2)c2ccccc2)cc1` are 1550 nM and 5550 nM.
For `CN(CCCNC(=O)Cc1ccc2ccc3cccc4ccc1c2c34)CCCNc1cc(-c2ccc3ccccc3c2)nc2ccccc12` the same measures were 1420 nM and 2750 nM.
The corresponding values for `Cc1ccc(S(=O)(=O)NCCNc2nccc(-c3c(-c4ccc(F)cc4)nc4sccn34)n2)cc1` are 4200 nM and more than 100000 nM.
In the case of `Cc1cc(N/N=C/c2nc(-c3ccc(Br)cc3)oc2C)c2cc(Br)ccc2n1`, the GI50 was 1750 nM and the TGI stood at 4850 nM.
For `COc1cc2ncn(-c3cc(OCCc4ccccc4)c(C(N)=O)s3)c2cc1OC` the same measures were 3350 nM and 24200 nM.
As to `CN1CCN(c2ccc(Nc3nc(NCCCNS(=O)(=O)c4ccc(Cl)cc4)c4sccc4n3)cc2)CC1`, the GI50 was 4030 nM and the TGI stood at 16300 nM.
The corresponding values for `O=[N+]([O-])c1ccc2c(c1)C(c1ccccc1Cl)=Nc1cn[nH]c1N2` are 12500 nM and more than 25000 nM.
In the case of `O=C(COc1ccc(/C=C2\CSc3ccccc3C2=O)cc1)Nc1nccs1`, the GI50 was 1840 nM and the TGI is 4000 nM.
The corresponding values for `COc1ccc2ncn(-c3cc(O[C@H](C)c4ccccc4Cl)c(C(N)=O)s3)c2c1` are 6.67 nM and 40 nM.
Consider `CC(=O)O[C@H](C[C@H](C(C)C)N(C)C(=O)[C@@H](NC(=O)[C@H]1CCCCN1C)C(C)C)c1nc(C(=O)N[C@@H](Cc2ccccc2)C[C@H](C)C(=O)O)c(CCOCc2ccccc2)s1`, for which the GI50 is less than 1 nM and the TGI is more than 10000 nM.
Take `C=C1C(=O)O[C@H]2[C@H]1CC/C(COC(=O)c1ccc(Cl)nc1)=C\CC[C@@]1(C)O[C@@H]21`: the GI50 is 1210 nM and the TGI was found to be 3500 nM.
The corresponding values for `COc1ccc2c(c1)C(C)Cc1c(ncnc1-n1c(C)nc3ccccc31)N2C` (stereo unspecified) are 3050 nM and 20500 nM.
With `COc1cc2c(c(OC)n1)[C@]1(O)[C@H](O)[C@H](CN(C)C)[C@@H](c3ccccc3)[C@]1(c1ccc(C#N)cc1)O2`, the GI50 was < 15.7 nM and 15.8 nM; the TGI was 482 nM and 1440 nM.
Consider `NC(CS/C(Cl)=C/Cl)C(=O)O` (stereo unspecified), for which the GI50 is 2990 nM and the TGI was determined as 16700 nM.
Regarding `O=C(/C=C/c1cc(CN2CCOCC2)c(O)c2ncccc12)c1cc(CN2CCOCC2)c(O)c2ncccc12`, the GI50 was 34.6 nM and the TGI turned out to be 683 nM.
For `Cn1cc(C2=C(c3cn(CCCCCN)c4ccccc34)C(=O)NC2=O)c2ccccc21` the same measures were 7540 nM and more than 25000 nM.
`CCC(C)(C)c1ccc(OCCCCCCN2CCNCC2)cc1`: the GI50 was 1760 nM and the TGI was 3470 nM.
For `O=C(Nc1ccc(Br)cc1)c1ccc(Cl)c(Cl)c1` the same measures were 7500 nM and more than 100000 nM.
Consider `CC(C)N=c1cc2n(-c3ccc(Cl)cc3)c3ccccc3nc-2cc1Nc1ccc(Cl)cc1`, for which the GI50 is 560 nM and the TGI turned out to be 1670 nM.
For `COc1cc2c3c(n(CCCN4CCC[C@H]4C(N)=O)c(=O)c2cc1OC)-c1cc2c(cc1C3=O)OCO2` the same measures were 45.6 nM and 316 nM.
For `NC(N)=NCCCCCNc1noc(Cc2c[nH]c3cc(Br)ccc23)n1` the same measures were 2010 nM and 7040 nM.
The corresponding values for `COc1cc(C2=C(c3cn(C)c4ccccc34)COC2=O)cc(OC)c1OC` are 31.9 nM and 380 nM.
As to `O=C(Nc1ccc(-n2cc(-c3ccncc3)c(-c3ccc(Cl)c(O)c3)n2)cc1)Nc1ccc(Cl)c(C(F)(F)F)c1`, the GI50 is 1460 nM and the TGI was found to be 3400 nM.
For `COc1cc(OC)c(S(N)(=O)=O)cc1C(=O)/C=C/c1ccc(Cl)cc1` the same measures were 1450 nM and 3080 nM.
For `C[C@]12CCc3nc(Nc4ccccc4)sc3C1=CC[C@@H]1[C@@H]2CC[C@]2(C)/C(=N/NC(N)=S)CC[C@@H]12` the same measures were 1870 nM and 5380 nM.
For `CC(C)S(=O)(=O)c1ccccc1Nc1nc(Nc2cccc(NC(=O)CN)c2)ncc1Cl` the same measures were 99.9 nM and 1860 nM.
As to `COCCOc1cnc2ccn([C@H](C)c3nnc4c(F)cc(-c5cnn(C)c5)cn34)c(=O)c2c1`, the GI50 was more than 100000 nM and the TGI was more than 100000 nM.
As for `CCn1c(CO)nn(-c2cc(O[C@@H](C)C(F)(F)F)c(C(=O)Nc3c(F)cccc3Cl)cc2F)c1=O`, the GI50 was 3280 nM and the TGI was more than 72300 nM.
For `COc1ccc(-c2oc3cc(O)c(OC)c(O)c3c(=O)c2OC)cc1O` the same measures were 312 nM and 4140 nM.
Take `O=C(O)c1ccc(-n2c(=O)n(-c3cccc(C(F)(F)F)c3)c(=O)c3cc(-c4ccc(F)cc4F)ccc32)cc1`: the GI50 is 2160 nM and the TGI worked out at 5940 nM.
For `CCc1ccccc1NC(=O)c1sc2nc3c(cc2c1N)C(=O)CCC3` the same measures were 235 nM and 44700 nM.
For `Nc1nc(SN=Nc2ccc(S(N)(=O)=O)cc2)c2[nH]cnc2n1` the same measures were 284 nM and 4110 nM.
